Calls of active or inactive are those of the source.
Key:
[1] = NIH3T3 cell viability loss – ATP luminescence, mouse fibroblasts, counter-screen, dose response (AID 2010); assay type: functional, cell-based;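 note: cells exposed to compound for about 90 hours before reading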
[2] = target: Broad substrate specificity ATP-binding cassette transporter ABCG2 (Homo sapiens, UniProt Q9UNQ0); experiment: blockers of JC-1 export by ABCG2 – Ig-MXP3 cells, flow cytometry, dose response (AID 1690); assay type: functional
Broad substrate specificity ATP-binding cassette transporter ABCG2, sequence (Q9UNQ0 whole entry): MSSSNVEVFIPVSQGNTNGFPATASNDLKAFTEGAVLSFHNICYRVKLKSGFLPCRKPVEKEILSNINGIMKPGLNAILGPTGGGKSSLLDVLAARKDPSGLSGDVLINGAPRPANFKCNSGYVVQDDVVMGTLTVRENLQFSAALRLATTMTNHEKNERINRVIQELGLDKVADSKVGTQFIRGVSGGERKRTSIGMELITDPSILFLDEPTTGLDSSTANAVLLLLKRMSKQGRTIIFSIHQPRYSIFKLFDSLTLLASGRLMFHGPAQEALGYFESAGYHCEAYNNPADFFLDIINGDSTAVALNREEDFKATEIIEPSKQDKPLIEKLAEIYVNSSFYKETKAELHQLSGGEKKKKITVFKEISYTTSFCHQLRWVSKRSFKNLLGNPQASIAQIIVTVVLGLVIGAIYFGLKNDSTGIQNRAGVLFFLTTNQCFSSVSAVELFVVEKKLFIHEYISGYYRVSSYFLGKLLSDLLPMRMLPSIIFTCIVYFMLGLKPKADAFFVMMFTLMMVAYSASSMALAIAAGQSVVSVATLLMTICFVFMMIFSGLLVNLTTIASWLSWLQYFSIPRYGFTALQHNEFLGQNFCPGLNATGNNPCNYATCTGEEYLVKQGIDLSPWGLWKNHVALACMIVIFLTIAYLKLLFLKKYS

[3] = tested on: Streptococcus sp. 'group A'; experiment: Streptococcus pyogenes SK(-)GAS viability under kanamycin – luminescence, BacTiterGlo, confirmation, counter-screen for streptokinase expression inhibitor project, dose response (AID 1900); assay type: functional, organism-based
[4] = target: T1, Streptokinase A (Streptococcus pyogenes serotype M1, UniProt P10520); experiment: viability-normalized secreted streptokinase activity reduction – plasminogen activation absorbance, OD405, dose response (AID 1914); assay type: functional, Streptococcus pyogenes M1 GAS;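 note: secreted streptokinase activity via plasminogen activation per viability signal from cell pellet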
T1 sequence (P10520 whole entry): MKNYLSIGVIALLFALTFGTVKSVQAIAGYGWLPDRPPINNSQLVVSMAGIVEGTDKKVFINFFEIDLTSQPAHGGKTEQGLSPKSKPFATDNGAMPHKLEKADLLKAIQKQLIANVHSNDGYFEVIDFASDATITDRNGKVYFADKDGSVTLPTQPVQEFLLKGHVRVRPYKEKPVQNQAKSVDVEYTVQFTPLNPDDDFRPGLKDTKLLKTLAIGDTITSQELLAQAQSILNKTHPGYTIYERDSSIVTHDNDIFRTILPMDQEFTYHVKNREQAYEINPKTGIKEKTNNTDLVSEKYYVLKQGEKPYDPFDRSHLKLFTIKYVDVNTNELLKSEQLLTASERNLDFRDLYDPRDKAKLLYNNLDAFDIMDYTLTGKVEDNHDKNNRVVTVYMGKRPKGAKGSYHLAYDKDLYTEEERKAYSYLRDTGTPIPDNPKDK

[5] = Trypanosoma cruzi growth suppression in host cells – NIH3T3 host cells, beta-gal luminescence, confirmation (AID 2044); assay type: functional, cell-based;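 note: intracellular parasites grown in NIH/3T3 mouse fibroblasts as host cells; luminescent beta-galactosidase reporter signal from transgenic T. cruzi replicating inside host cells; inhibitors lower the luminescence signal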
[6] = tested on: Streptococcus; experiment: GAS UMAA2166 growth inhibition – luminescence, BacTiterGlo, counter-screen for streptokinase expression inhibitor project, dose response (AID 1915); assay type: functional, organism-based;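 note: potency for reduction of bacterial viability or growth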
[7] = blockers of HIV-1 envelope-mediated cell-cell fusion – cherry-pick, dose response (AID 652057); assay type: functional, cell-based
[8] = microbe, parasite or virus in culture; assay type: functional; conditions: Mycobacterium tuberculosis
[9] = blockers of HIV-1 ZM109 envelope-driven cell-cell fusion – HeLa effector, CEM target cells, luciferase, cherry-pick, dose response (AID 652058); assay type: functional, cell-based;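 note: luciferase signal from HIV-1 Env mediated cell-cell fusion of effector and target cells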
[10] = cells; assay type: functional
[11] = THP-1 cell cytotoxicity, dose response, cytotoxicity control for non-replicating M. tuberculosis project (AID 489025); assay type: functional
[12] = HIV-1 AD8 envelope cell-cell fusion blockers – cherry-pick, dose response (AID 652062); assay type: functional, cell-based;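 note: luciferase signal from cell-cell fusion driven by HIV-1 clade B AD8 Env; potency is for inhibitors of fusion seen as a drop in luminescence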
[13] = HepG2 cell cytotoxicity, dose response, cytotoxicity control for non-replicating M. tuberculosis project (AID 489018); assay type: functional; conditions: Mycobacterium tuberculosis
[14] = off-target signal loss in HeLa-CEM21 co-culture – HeLa F-luc CTL cells, cherry-picked, counter-screen for HIV-1 Env fusion inhibitor project, dose response (AID 652040); assay type: functional, cell-based;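 note: potency for signal decrease marking cytotoxic or nonspecific inhibition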
[15] = viability loss in CEM21 cells – cell-based, CellTiter-Glo luminescence, cherry-picked, cytotoxicity control for viral fusion inhibitor project, dose response (AID 652042); assay type: functional;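 note: potency for signal decrease meaning cytotoxicity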
[16] = target: T2, Rac GTPase-activating protein 1 (Homo sapiens, UniProt Q9H0H5); experiment: blockers of MgcRacGAP-driven Rac1 GTP hydrolysis – biochemical, ADP Hunter fluorescence, primary and confirmatory, confirmation (AID 624330); assay type: functional
T2 sequence (Q9H0H5 whole entry): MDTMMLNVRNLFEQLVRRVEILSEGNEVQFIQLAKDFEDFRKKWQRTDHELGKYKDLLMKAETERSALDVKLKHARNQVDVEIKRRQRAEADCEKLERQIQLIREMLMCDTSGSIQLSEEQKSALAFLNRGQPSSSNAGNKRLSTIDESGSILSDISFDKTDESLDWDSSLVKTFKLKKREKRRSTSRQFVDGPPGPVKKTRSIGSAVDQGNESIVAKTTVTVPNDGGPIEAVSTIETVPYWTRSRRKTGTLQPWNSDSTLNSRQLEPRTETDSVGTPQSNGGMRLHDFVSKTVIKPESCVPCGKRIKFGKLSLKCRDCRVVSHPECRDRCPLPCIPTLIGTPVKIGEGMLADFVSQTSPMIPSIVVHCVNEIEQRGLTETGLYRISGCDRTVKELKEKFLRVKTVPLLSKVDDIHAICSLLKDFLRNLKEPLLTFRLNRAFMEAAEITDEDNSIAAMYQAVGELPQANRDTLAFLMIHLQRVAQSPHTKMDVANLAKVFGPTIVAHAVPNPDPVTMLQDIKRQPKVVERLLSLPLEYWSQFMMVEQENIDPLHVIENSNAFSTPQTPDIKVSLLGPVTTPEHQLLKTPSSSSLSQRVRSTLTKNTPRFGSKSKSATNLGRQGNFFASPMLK

[17] = viability loss in HeLa cells – cytotoxicity control for MgcRacGAP inhibitor project, dose response (AID 624300); assay type: functional
[18] = cells
[19] = target: Arf-GAP with SH3 domain, ANK repeat and PH domain-containing protein 1 (Homo sapiens, UniProt Q9ULH1); assay type: functional;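 note: biochemical fluorescence polarization dose–response screen measuring inhibition of ASAP1; ASAP1 GAP domain stimulating GTP hydrolysis by truncated human ARF1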
Arf-GAP with SH3 domain, ANK repeat and PH domain-containing protein 1, sequence (Q9ULH1 whole entry, the tested form may be a part): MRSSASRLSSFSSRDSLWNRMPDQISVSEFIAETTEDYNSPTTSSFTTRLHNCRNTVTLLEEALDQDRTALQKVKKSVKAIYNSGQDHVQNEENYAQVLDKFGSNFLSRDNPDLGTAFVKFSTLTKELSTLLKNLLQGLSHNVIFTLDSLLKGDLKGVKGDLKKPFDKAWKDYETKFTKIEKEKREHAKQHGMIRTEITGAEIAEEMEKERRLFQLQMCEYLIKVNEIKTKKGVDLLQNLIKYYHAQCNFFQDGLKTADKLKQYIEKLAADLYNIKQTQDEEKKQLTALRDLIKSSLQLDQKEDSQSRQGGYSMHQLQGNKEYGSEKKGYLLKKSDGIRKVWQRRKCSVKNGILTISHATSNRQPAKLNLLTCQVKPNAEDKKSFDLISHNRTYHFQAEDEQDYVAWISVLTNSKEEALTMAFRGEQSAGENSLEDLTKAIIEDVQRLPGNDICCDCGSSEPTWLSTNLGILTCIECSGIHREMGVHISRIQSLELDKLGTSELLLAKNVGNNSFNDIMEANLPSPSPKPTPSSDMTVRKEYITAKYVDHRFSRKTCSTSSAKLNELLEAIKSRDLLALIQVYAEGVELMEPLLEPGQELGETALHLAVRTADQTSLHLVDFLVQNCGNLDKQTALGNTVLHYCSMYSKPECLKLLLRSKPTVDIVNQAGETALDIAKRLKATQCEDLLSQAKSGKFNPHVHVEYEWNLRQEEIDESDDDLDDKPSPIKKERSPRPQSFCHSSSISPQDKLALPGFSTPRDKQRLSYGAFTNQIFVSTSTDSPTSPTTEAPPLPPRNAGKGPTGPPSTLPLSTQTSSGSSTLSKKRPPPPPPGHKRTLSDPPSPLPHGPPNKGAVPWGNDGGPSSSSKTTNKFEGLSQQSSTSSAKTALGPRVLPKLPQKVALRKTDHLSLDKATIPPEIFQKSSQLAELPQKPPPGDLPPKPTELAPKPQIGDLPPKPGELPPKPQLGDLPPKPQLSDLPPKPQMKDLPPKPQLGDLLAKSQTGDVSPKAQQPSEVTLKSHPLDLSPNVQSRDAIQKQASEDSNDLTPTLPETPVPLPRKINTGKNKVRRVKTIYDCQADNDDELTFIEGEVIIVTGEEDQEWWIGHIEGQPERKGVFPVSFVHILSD

[20] = target: Trypsin (Sus scrofa, UniProt P00761); experiment: trypsin protease activity blockade – biochemical, quenched peptide fluorescence, cherry-pick, selectivity assay for Rce1 protease inhibitor project, dose response (AID 488789)
Trypsin, sequence (P00761 whole entry): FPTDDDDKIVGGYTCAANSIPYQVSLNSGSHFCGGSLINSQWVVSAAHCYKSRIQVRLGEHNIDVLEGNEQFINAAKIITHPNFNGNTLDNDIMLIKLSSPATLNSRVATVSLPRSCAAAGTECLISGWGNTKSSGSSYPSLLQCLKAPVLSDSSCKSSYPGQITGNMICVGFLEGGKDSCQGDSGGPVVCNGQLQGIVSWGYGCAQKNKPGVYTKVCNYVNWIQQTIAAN

[21] = target: Beta-lactamase (Salmonella choleraesuis (strain SC-B67), UniProt Q5J463); experiment: Epi-absorbance-based counterscreen for selective VIM-2 inhibitors: dose response biochemical high throughput screening assay to identify inhibitors of TEM-1 serine-beta-lactamase.
Beta-lactamase (Salmonella choleraesuis (strain SC-B67), UniProt Q5J463), sequence (Q5J463 whole entry): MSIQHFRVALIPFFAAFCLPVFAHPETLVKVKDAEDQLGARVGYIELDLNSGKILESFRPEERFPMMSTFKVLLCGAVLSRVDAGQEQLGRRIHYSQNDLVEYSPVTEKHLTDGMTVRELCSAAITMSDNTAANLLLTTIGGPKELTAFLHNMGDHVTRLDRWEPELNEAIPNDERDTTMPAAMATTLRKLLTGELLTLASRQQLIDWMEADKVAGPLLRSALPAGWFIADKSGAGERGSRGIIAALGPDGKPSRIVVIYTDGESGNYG

[22] = target: T3, Beta-lactamase (Pseudomonas aeruginosa, UniProt Q79MP6); experiment: inhibition of IMP-1 beta-lactamase activity – biochemical, epi-absorbance, selectivity assay for VIM-2 inhibitor project, dose response (AID 1920)
T3 sequence (Q79MP6 whole entry): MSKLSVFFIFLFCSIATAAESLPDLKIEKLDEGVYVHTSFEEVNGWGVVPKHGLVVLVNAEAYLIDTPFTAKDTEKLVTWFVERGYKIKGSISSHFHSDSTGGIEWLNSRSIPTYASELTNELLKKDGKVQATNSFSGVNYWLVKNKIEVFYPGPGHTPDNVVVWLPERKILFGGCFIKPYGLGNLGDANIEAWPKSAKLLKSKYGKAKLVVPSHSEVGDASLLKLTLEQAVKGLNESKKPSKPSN

[23] = target: T3, Beta-lactamase; experiment: […] counterscreen for selective VIM-2 inhibitors: dose response biochemical high throughput screening assay to identify inhibitors of IMP-1 metallo-beta-lactamase.
[24] = cytotoxicity in HEK293 background cells – cell-based, dry powder, set 2, counter-screen for EBV LMP1 inhibitor project, dose response (AID 624374); assay type: functional

## COc1cccc(-c2nc(N3CC(C)CC(C)C3)c3ccccc3n2)c1O (stereo unspecified)
[1]
  EC50: > 60 µM (not active)
[2]
  EC50: 1.04 µM (active)
[3]
  EC50: 5.15 µM (active)
[4]
  EC50: 6.53 µM (active)
[5]
  EC50: 1.84 µM (active)
[6]
  EC50: 82.5 µM (active)

## CC(NCCCOc1cccc2ccccc12)c1ccccc1 (stereo unspecified)
[7]
  AC50: 2.23 µM (active)
[8]
  CC50: 23.1 µM (active)
[9]
  AC50: 14.6 µM (active)
[10]
  IC50: 35.9 µM (active)
[11]
  CC50: 13.5 µM (active)
[12]
  AC50: 19.2 µM (active)
[13]
  CC50: > 20 µM (active)
[14]
  AC50: 6.96 µM (active)
[15]
  AC50: 17.4 µM (active)
[16]
  IC50: 161 µM (active)
[17]
  CC50: 36.2 µM (active)

## COc1cc2oc3ccc(C#Cc4ccccn4)cc3c(=O)c2cc1OC
[18]
  EC50: 0.183 µM (active)
[1]
  EC50: > 60 µM (not active)
[5]
  EC50: < 0.1 µM (active)
[19]
  IC50: 44.1 µM (inactive)

## CCCCn1c(S)nnc1-c1sccc1C
[20]
  AC50: 10 µM (active)
[21]
  IC50: > 59.6 µM (inactive)
[22]
  IC50: > 59.6 µM (inactive)
[23]
  IC50: > 59.6 µM (inactive)

## CN(C)c1ccc2c(c1)[C@@H]1C[C@H](CC(=O)NCc3ccc(Oc4ccccc4)cc3)O[C@@H](CO)[C@@H]1O2
[24]
  AbsAC35: 41.71 µM

Reference: ChEMBL document CHEMBL1201862, “PubChem BioAssay data set” (2004)
